Format in all cases: in vivo
Experiment [1] relates to Amaranthus retoflexus (AMARE). Put plainly: Post-emergence biological efficacy (percentage damage). The following applies: Amaranthus retroflexus, 312 h, dose 1,000 g/ha, evaluated after 13 days, 100=total damage, 0=no damage. The method in brief:
(§1)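 Post-emergence glasshouse test: plants sprayed 8 days after sowing (24/16 °C day/night, 14 h light, 65% humidity) at 250 or 1000 g/ha, formulated in acetone/water 50:50 with 0.5% Tween 20. Damage scored visually 13 days after treatment on a 0–100 scale (100 = total damage).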

In experiment [2] the test system is Echinochloa crus-galli (ECHCG). Described as above. The settings on record: Echinochloa crus-galli, 312 h, dose 1,000 g/ha, evaluated after 13 days, 100=total damage, 0=no damage. The method in brief: as §1
In experiment [3] the test system is Solanum nigrum (SOLNI). The description is as above. The following applies: Solanum nigrum, 312 h, dose 1,000 g/ha, evaluated after 13 days, 100=total damage, 0=no damage. The method in brief: as §1
Experiment [4] deals with Setaria faberi (SETFA). The experiment is described as above. The settings on record: Setaria faberi, 312 h, dose 1,000 g/ha, evaluated after 13 days, 100=total damage, 0=no damage. The method in brief: as §1
In experiment [5] the test system is Ipomea hederaceae (IPOHE). Described as above. The following applies: Ipomoea hederacea, 312 h, dose 1,000 g/ha, evaluated after 13 days, 100=total damage, 0=no damage. The method in brief:
as §1

For experiment [6], the system named is Alopecurus myosuroides (ALOMY). The description is as above. The following applies: Alopecurus myosuroides, 312 h, dose 1,000 g/ha, evaluated after 13 days, 100=total damage, 0=no damage. The method in brief: as §1
In experiment [7] the test system is Amaranthus retoflexus (AMARE). Put plainly: Pre-emergence biological efficacy (percentage damage). The settings on record: Amaranthus retroflexus, 312 h, dose 1,000 g/ha, evaluated after 13 days, 100=total damage, 0=no damage. The method in brief: (§2)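 In this pre-emergence test, pots of standard soil sown with seed are treated after one day of glasshouse cultivation using compound formulated in acetone/water (50:50) containing 0.5% Tween 20, dosed at 250 or 1000 g/ha. Growth continues at 24/16 °C day/night with 14 h light and 65% humidity, and damage is rated after 13 days.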

For experiment [8], the system named is Echinochloa crus-galli (ECHCG). Described as above. The settings on record: Echinochloa crus-galli, 312 h, dose 1,000 g/ha, evaluated after 13 days, 100=total damage, 0=no damage. The method in brief:
as §2

The subject of experiment [9] is Solanum nigrum (SOLNI). The description is as above. The settings on record: Solanum nigrum, 312 h, dose 1,000 g/ha, evaluated after 13 days, 100=total damage, 0=no damage. The method in brief:
as §2

In experiment [10] the test system is Setaria faberi (SETFA). The experiment is described as above. The following applies: Setaria faberi, 312 h, dose 1,000 g/ha, evaluated after 13 days, 100=total damage, 0=no damage. The method in brief:
as §2

For experiment [11], the system named is Ipomea hederaceae (IPOHE). The description is as above. The settings on record: Ipomoea hederacea, 312 h, dose 1,000 g/ha, evaluated after 13 days, 100=total damage, 0=no damage. The method in brief:
as §2

Experiment [12] relates to Alopecurus myosuroides (ALOMY). Described as above. The following applies: Alopecurus myosuroides, 312 h, dose 1,000 g/ha, evaluated after 13 days, 100=total damage, 0=no damage. The method in brief:
as §2

As for `C=Cc1c(N)nc(-c2ccc(F)c(C(F)(F)F)c2)nc1C(=O)OC` [Compound 43-61, 4-Amino-5-ethenyl-2-(4-fluoro-3-trifluoromethyl-phenyl)-6-methoxycarbonyl-pyrimidine], the pest or weed control at 1000 g/ha in [1] stood at 20%; in experiment [2], 30%; in [3], 70%; in experiment [4] it was 20%; in [5] it was 10%; in experiment [6] it was 30%. The pest or weed control at 1000 g/ha in experiment [7] amounted to 60%; in experiment [8] it was 70%; in [9], 70%; in experiment [10], 50%; in experiment [11], 10%; in experiment [12], 30%.
For the compound `C=Cc1c(N)nc(-c2ccc(F)c(Cl)c2)nc1C(=O)OC` [Compound 44-61, 4-Amino-2-(3-chloro-4-fluorophenyl)-5-ethenyl-6-methoxycarbonyl-pyrimidine], the pest or weed control at 1000 g/ha in [1] is 100%; in experiment [2], 50%; in [3] it was 90%; in experiment [4] it was 60%; in [5], 30%; in [6], 40%. The pest or weed control at 1000 g/ha in experiment [7] was found to be 50%; in experiment [8] it was 40%; in experiment [9], 40%; in experiment [10], 30%; in experiment [11], 10%; in experiment [12], 20%.
With `C=Cc1c(N)nc(-c2ccc(F)c(C)c2)nc1C(=O)OC` [Compound 45-61, 4-Amino-5-ethenyl-2-(4-fluoro-3-methylphenyl)-6-methoxycarbonyl-pyrimidine], the pest or weed control at 1000 g/ha amounted to 100% in experiment [1]; 40% in [2]; 70% in [3]; 50% in experiment [4]; 30% in experiment [5]; 50% in experiment [6]. Also, the pest or weed control at 1000 g/ha in experiment [7] was 100%; in [8] it was 40%; in experiment [9] it was 40%; in [10], 50%; in experiment [11] it was 0%; in experiment [12] it was 50%.
For the compound `C=Cc1c(N)nc(-c2ccc(OC(F)(F)F)cc2)nc1C(=O)OC` [Compound 47-61, 4-Amino-5-ethenyl-6-methoxycarbonyl-2-(4-trifluoromethoxy-phenyl)-pyrimidine], the pest or weed control at 1000 g/ha in [1] is 100%; in experiment [2], 10%; in [3], 70%; in experiment [4], 10%; in [5], 10%; in experiment [6] it was 10%. Also, the pest or weed control at 1000 g/ha in experiment [7], in [8], in experiment [9], in experiment [10], in [11] and in experiment [12] was 0% in each case.
In the case of `COC(=O)c1nc(-c2ccc(C)c(OC)c2F)nc(N)c1C` [Compound 60-41], the pest or weed control at 1000 g/ha in experiment [1] amounted to 100%; in experiment [2], 30%; in experiment [3], 100%; in [4], 10%; in [5], 40%; in experiment [6], 40%. Besides, the pest or weed control at 1000 g/ha in experiment [7] came out at 0%; in experiment [8], 10%; in experiment [9] it was 40%; in [10], 10%; in experiment [11] it was 10%; in [12], 20%.
Turning to `C=Cc1c(N)nc(-c2cc(F)cc(Cl)c2)nc1C(=O)OC` [Compound 61-61, 4-Amino-2-(3-chloro-5-fluorophenyl)-5-ethenyl-6-methoxycarbonyl-pyrimidine], the pest or weed control at 1000 g/ha came out at 10% in [1]; 0% in experiment [2]; 20% in [3]; 0% in [4]; 0% in [5]; 0% in experiment [6]. In addition, the pest or weed control at 1000 g/ha came out at 0% in [7]; 0% in experiment [8]; 30% in experiment [9]; 0% in experiment [10]; 0% in [11]; 0% in experiment [12].
Take `C=Cc1c(N)nc(SC)nc1C(=O)OC` [Compound 62-61, 4-amino-5-ethenyl-6-methoxycarbonyl-2-methylthiopyrimidine]: the pest or weed control at 1000 g/ha was 100% in experiment [1]; 0% in experiment [2]; 90% in [3]; 10% in experiment [4]; 90% in experiment [5]; 0% in experiment [6]. Besides, the pest or weed control at 1000 g/ha in experiment [7] turned out to be 100%; in [8], 0%; in experiment [9] it was 100%; in experiment [10], 0%; in experiment [11] it was 100%; in experiment [12], 0%.
On to `C=Cc1c(N)nc(-c2cc(F)c(F)c(F)c2)nc1C(=O)OC` [Compound 63-61, 4-Amino-5-ethenyl-6-methoxycarbonyl-2-(3,4,5-trifluorophenyl)-pyrimidine], for which the pest or weed control at 1000 g/ha in [1] turned out to be 0%; in experiment [2], 0%; in experiment [3] it was 20%; in experiment [4] it was 0%; in [5] it was 20%; in experiment [6] it was 0%. In addition, the pest or weed control at 1000 g/ha in experiment [7], in experiment [8], in [9], in experiment [10], in [11] and in experiment [12] was 0% throughout.
As for `C=Cc1ccc(-c2nc(N)c(C=C)c(C(=O)OC)n2)c(F)c1N(C)C` [Compound 64-61, 4-amino-2-(3-dimethylamino-4-ethenyl-2-fluorophenyl)-5-ethenyl-6-methoxycarbonylpyrimidine], the pest or weed control at 1000 g/ha was determined as 100% in experiment [1]; 10% in experiment [2]; 60% in [3]; 30% in [4]; 10% in [5]; 10% in experiment [6]. In addition, the pest or weed control at 1000 g/ha is 30% in [7]; 10% in experiment [8]; 10% in experiment [9]; 10% in experiment [10]; 0% in [11]; 10% in experiment [12].
In the case of `COC(=O)c1nc(-c2ccc(C(C)=O)c(OC)c2F)nc(N)c1C(C)=O` [Compound 65-53, 4-Amino-2-(2-fluoro-3-methoxy-4-methylcarbonyl-phenyl)-6-methoxycarbonyl-5-methylcarbonyl-pyrimidine], the pest or weed control at 1000 g/ha is 20% in experiment [1]; 10% in experiment [2]; 70% in experiment [3]; 10% in experiment [4]; 50% in experiment [5]; 0% in experiment [6]. Further, the pest or weed control at 1000 g/ha turned out to be 0% in [7]; 0% in experiment [8]; 0% in experiment [9]; 0% in experiment [10]; 20% in [11]; 0% in [12].

A word on the pest or weed control: it is how far the test organism was held down. A higher pest or weed control goes with strong suppression.

The record behind these values is patent US20120053053A1, “PYRIMIDINE DERIVATIVES AND THEIR USE AS HERBICIDES” (SYNGENTA CROP PROTECTION, LLC, priority 2009, published 2012).
